Experimental data published in the supplement of paper PMC11061612.

Tests used:
Assay in all cases: combination Emax (second highest fraction inhibited in the dose matrix, 72 h); higher = more inhibition; extreme values may be limits of the assay
[1] = tested on: ATN-1 (T-Lymphoblastic Leukemia)
Summary of the method: (§1)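 Cell lines in DMEM/F12 or RPMI with 10% FBS were plated in 1536-well plates, held 24 hours at 37°C, 5% CO2, then given two-drug dose matrices for 72 hours (DMSO typically 0.2%). Viability was read by CellTiter-Glo 2.0 luminescence and scaled as inhibition from 0 (vehicle wells) to 1 (blank wells). Combination Emax is the second-highest inhibition in the matrix; Bliss excess is observed combination effect minus expected EA + EB − EA·EB, EA and EB being single-agent effects.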

[2] = tested on: C32 (Melanoma)
Summary of the method: as §1

[3] = tested on: DK-MG (Glioblastoma)
Summary of the method: as §1

[4] = tested on: Daudi (Burkitt's Lymphoma)
Summary of the method: as §1

[5] = tested on: HT-144 (Melanoma)
Summary of the method: as §1

[6] = tested on: JJN-3 (Plasma Cell Myeloma)
Summary of the method: as §1

[7] = tested on: NCI-H1048 (Small Cell Lung Carcinoma)
Summary of the method: as §1

[8] = tested on: NCI-H1944 (Lung Adenocarcinoma)
Summary of the method: as §1

[9] = tested on: TK (B-Cell Non-Hodgkin's Lymphoma)
Summary of the method: as §1

[10] = tested on: BC-1 (B-Cell Non-Hodgkin's Lymphoma)
Summary of the method: as §1

[11] = tested on: CAL-85-1 (Breast Carcinoma)
Summary of the method: as §1

[12] = tested on: MG-63 (Osteosarcoma)
Summary of the method: as §1

[13] = tested on: NCI-H1648 (Lung Adenocarcinoma)
Summary of the method: as §1

[14] = tested on: SBC-3 (Small Cell Lung Carcinoma)
Summary of the method: as §1

[15] = tested on: SK-MEL-24 (Melanoma)
Summary of the method: as §1

[16] = tested on: SW1463 (Colorectal Carcinoma)
Summary of the method: as §1

Row | Compound | combination Emax [1] | combination Emax [2] | combination Emax [3] | combination Emax [4] | combination Emax [5] | combination Emax [6] | combination Emax [7] | combination Emax [8] | combination Emax [9] | combination Emax [10] | combination Emax [11] | combination Emax [12] | combination Emax [13] | combination Emax [14] | combination Emax [15] | combination Emax [16]
1 | COc1nnc2ccc(N3CCC(c4ccc(OCCN5CCN(C)C(=O)[C@H]5C)cc4)CC3)nn12 [AZD5153] + CN(CC[C@H](CSC1=CC=CC=C1)NC2=C(C=C(C=C2)S(=O)(=O)NC(=O)C3=CC=C(C=C3)N4CCC(CC4)[C@H](C5=CC=CC=C5C6=CC=C(C=C6)Cl)O)S(=O)(=O)C(F)(F)F)CCO [AZD4320] (first compound max 1 µM, 7x7, partner max 1 µM) | 0.718 | 0.444 | 0.614 | 0.58 | 0.454 | 0.969 | 0.801 | 0.616 | 1 |  |  |  |  |  |  | 
2 | CN(CCO)CC[C@H](CSc1ccccc1)Nc1ccc(S(=O)(=O)NC(=O)c2ccc(N3CCC([C@@H](O)c4ccccc4-c4ccc(Cl)cc4)CC3)cc2)cc1S(=O)(=O)C(F)(F)F [AZD4320] + CS(=O)(=O)CCNCc1ccc(-c2ccc3ncnc(Nc4ccc(OCc5cccc(F)c5)c(Cl)c4)c3c2)o1 [Lapatinib] (first compound max 1 µM, 7x7, partner max 10 µM) |  | 0.344 |  |  |  |  |  |  |  | 0.961 | 0.957 | 0.596 | 0.952 | 0.407 | 0.942 | 0.974
3 | O=C(c1cc(Cc2n[nH]c(=O)c3ccccc23)ccc1F)N1CCN(C(=O)C2CC2)CC1 [Olaparib] + CC1(C)CCC(CN2CCN(c3ccc(C(=O)NS(=O)(=O)c4ccc(NCC5CCOCC5)c([N+](=O)[O-])c4)c(Oc4cnc5[nH]ccc5c4)c3)CC2)=C(c2ccc(Cl)cc2)C1 [Venetoclax] (first compound max 10 µM, 7x7, partner max 1 µM) |  | 0.145 |  |  |  |  |  |  |  | 0.252 | 0.239 | 0.299 | 0.118 | 0.665 | 0.0984 | 0.229
4 | CS(=O)(=O)CCNCc1ccc(-c2ccc3ncnc(Nc4ccc(OCc5cccc(F)c5)c(Cl)c4)c3c2)o1 [Lapatinib] + Cn1cnc2c(F)c(Nc3ccc(Br)cc3Cl)c(C(=O)NOCCO)cc21 [Selumetinib] (first compound max 10 µM, 7x7, partner max 10 µM) |  | 0.935 |  |  |  |  |  |  |  | 0.787 | 0.85 | 0.453 | 0.764 | 0.321 | 0.853 | 0.868
5 | O=C(c1cc(Cc2n[nH]c(=O)c3ccccc23)ccc1F)N1CCN(C(=O)C2CC2)CC1 [Olaparib] + Cc1c2c(nn1C)CSCc1cc(n(C)n1)CSc1cc(c3ccccc3c1)OCCCc1c(C(=O)O)n(C)c3c-2c(Cl)ccc13 [AZD5991] (first compound max 10 µM, 7x7, partner max 1 µM) |  | 0.0885 |  |  |  |  |  |  |  | 1 | 0.168 | 0.216 | 0.384 | 0.523 | 0.0746 | 0.192
6 | C[C@@H]1COCCN1c1cc(C2([S@](C)(=N)=O)CC2)nc(-c2ccnc3[nH]ccc23)n1 [AZD6738] + C1CC(C1)(C(=O)[O-])C(=O)[O-].N.N.[Pt+2] [Carboplatin] (first compound max 10 µM, 7x7, partner max 10 µM) |  | 0.601 |  |  |  |  |  |  |  | 0.849 | 0.382 | 0.524 | 0.571 | 0.647 | 0.36 | 0.409
7 | C=CCn1c(=O)c2cnc(Nc3ccc(N4CCN(C)CC4)cc3)nc2n1-c1cccc(C(C)(C)O)n1 [AZD1775] + CCc1c2c(nc3ccc(O)cc13)-c1cc3c(c(=O)n1C2)COC(=O)[C@]3(O)CC [SN-38] (first compound max 1 µM, partner max 0.3 µM) |  | 0.69 |  |  |  |  |  |  |  | 1 | 0.799 | 0.968 | 0.842 | 0.946 | 0.806 | 0.587
8 | CC(=O)c1c(C)c2cnc(Nc3ccc(N4CCNCC4)cn3)nc2n(C2CCCC2)c1=O [Palbociclib] + CN(CC[C@H](CSC1=CC=CC=C1)NC2=C(C=C(C=C2)S(=O)(=O)NC(=O)C3=CC=C(C=C3)N4CCC(CC4)[C@H](C5=CC=CC=C5C6=CC=C(C=C6)Cl)O)S(=O)(=O)C(F)(F)F)CCO [AZD4320] (first compound max 10 µM, 7x7, partner max 1 µM) | 0.772 | 0.209 | 0.389 | 0.561 | 0.753 | 0.388 | 0.677 | 0.628 | 0.996 |  |  |  |  |  |  | 
9 | C[C@@H](Nc1cc(F)cc(F)c1)c1cc(C(=O)N(C)C)cc2c(=O)cc(N3CCOCC3)oc12 [AZD8186] + CC(=O)c1c(C)c2cnc(Nc3ccc(N4CCNCC4)cn3)nc2n(C2CCCC2)c1=O [Palbociclib] (first compound max 10 µM, 7x7, partner max 10 µM) |  | 0.342 |  |  |  |  |  |  |  | 0.93 | 0.164 | 0.633 | 0.579 | 0.709 | 0.449 | 0.722
10 | Cc1c2c(nn1C)CSCc1cc(n(C)n1)CSc1cc(c3ccccc3c1)OCCCc1c(C(=O)O)n(C)c3c-2c(Cl)ccc13 [AZD5991] + CS(=O)(=O)CCNCc1ccc(-c2ccc3ncnc(Nc4ccc(OCc5cccc(F)c5)c(Cl)c4)c3c2)o1 [Lapatinib] (first compound max 1 µM, 7x7, partner max 10 µM) |  | 0.228 |  |  |  |  |  |  |  | 1 | 0.825 | 0.157 | 0.895 | 0.28 | 0.806 | 0.51
11 | CC1(C)CCC(CN2CCN(c3ccc(C(=O)NS(=O)(=O)c4ccc(NCC5CCOCC5)c([N+](=O)[O-])c4)c(Oc4cnc5[nH]ccc5c4)c3)CC2)=C(c2ccc(Cl)cc2)C1 [Venetoclax] + CS(=O)(=O)CCNCc1ccc(-c2ccc3ncnc(Nc4ccc(OCc5cccc(F)c5)c(Cl)c4)c3c2)o1 [Lapatinib] (first compound max 1 µM, 7x7, partner max 10 µM) |  | 0.209 |  |  |  |  |  |  |  | 0.904 | 0.657 | 0.302 | 0.624 | 0.183 | 0.683 | 0.4
12 | C[C@@H](Oc1cc(-c2cnn(C3CCNCC3)c2)cnc1N)c1c(Cl)ccc(F)c1Cl [Crizotinib] + Cn1cnc2c(F)c(Nc3ccc(Br)cc3Cl)c(C(=O)NOCCO)cc21 [Selumetinib] (first compound max 10 µM, 7x7, partner max 10 µM) |  | 0.995 |  |  |  |  |  |  |  | 0.838 | 0.412 | 0.672 | 0.58 | 0.97 | 0.93 | 0.622
13 | C[C@@H]1COCCN1c1cc(C2([S@](C)(=N)=O)CC2)nc(-c2ccnc3[nH]ccc23)n1 [AZD6738] + Nc1ccn([C@@H]2O[C@H](CO)[C@@H](O)C2(F)F)c(=O)n1 [Gemcitabine] (first compound max 10 µM, 7x7, partner max 0.3 µM) |  | 0.703 |  |  |  |  |  |  |  | 0.985 | 0.726 | 1 | 0.725 | 0.97 | 0.841 | 0.792
14 | C[C@@H](Oc1cc(-c2cnn(C3CCNCC3)c2)cnc1N)c1c(Cl)ccc(F)c1Cl [Crizotinib] + CC1=C(C(=CC=C1)Cl)NC(=O)C2=CN=C(S2)NC3=CC(=NC(=N3)C)N4CCN(CC4)CCO [Dasatinib] (first compound max 10 µM, 7x7, partner max 2 µM) |  | 0.425 |  |  |  |  |  |  |  | 0.94 | 0.778 | 0.949 | 0.908 | 0.957 | 0.871 | 0.133
15 | C[C@@H](Nc1cc(F)cc(F)c1)c1cc(C(=O)N(C)C)cc2c(=O)cc(N3CCOCC3)oc12 [AZD8186] + C1CN(CCC1(C(=O)N[C@@H](CCO)C2=CC=C(C=C2)Cl)N)C3=NC=NC4=C3C=CN4 [AZD5363] (first compound max 10 µM, 7x7, partner max 10 µM) |  | 0.436 |  |  |  |  |  |  |  | 0.577 | 0.214 | 0.694 | 0.707 | 0.446 | 0.508 | 0.274
16 | Cc1nc(-c2cn3c(n2)-c2ccc(-c4cnn(C(C)(C)C(N)=O)c4)cc2OCC3)n(C(C)C)n1 [Taselisib] + O=C(Nc1ccc2[nH]nc(-c3ccncc3)c2c1)[C@@H]1CCN(CC(=O)N2CCN(c3ccc(-c4ncccn4)cc3)CC2)C1 [SCH772984] (first compound max 10 µM, 7x7, partner max 5 µM) |  | 1 |  |  |  |  |  |  |  | 0.652 | 0.935 | 0.746 | 1 | 0.76 | 0.93 | 0.798
17 | CS(=O)(=O)CCNCc1ccc(-c2ccc3ncnc(Nc4ccc(OCc5cccc(F)c5)c(Cl)c4)c3c2)o1 [Lapatinib] + NC1(c2ccc(-c3nc4ccn5c(=O)[nH]nc5c4cc3-c3ccccc3)cc2)CCC1 [MK-2206] (first compound max 10 µM, 7x7, partner max 10 µM) |  | 0.635 |  |  |  | 0.899 |  | 0.941 |  | 0.957 | 0.9 | 0.924 | 0.99 | 0.917 | 0.949 | 0.868
18 | O=C(c1cc(Cc2n[nH]c(=O)c3ccccc23)ccc1F)N1CCN(C(=O)C2CC2)CC1 [Olaparib] + COc1nnc2ccc(N3CCC(c4ccc(OCCN5CCN(C)C(=O)[C@H]5C)cc4)CC3)nn12 [AZD5153] (first compound max 10 µM, 7x7, partner max 1 µM) |  | 0.22 |  |  |  |  |  |  |  | 0.873 | 0.613 | 0.717 | 0.684 | 0.703 | 0.419 | 0.561
